From PubChem BioAssay AID179 (DTP/NCI, 2004)
The source made the active and inactive calls.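 The calls were made as follows: active = compounds giving half or more protection of infected cells from virus-caused growth loss, again on retest; inactive = the rest.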

Test system: CEM cells HIV-1 protection, formazan growth assay
Test: NCI AIDS Antiviral Assay
Details: for IC50: measured here: growth of uninfected CEM cells
Outline: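 Soluble formazan readout of cell growth; CEM cells ± HIV-1; 5 drug concs. ≥50% protection → retest; ≥50% again = moderately active; reproducible 100% = confirmed active.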

Row | Structure (SMILES) | outcome | EC50 | IC50
1 | COc1cccc2c1C(=O)c1c(O)c3c(c(O)c1C2=O)C[C@@](O)(C(C)=O)C[C@@H]3OC1CC(N(Cc2ccccc2)Cc2ccccc2)C(O)C(C)O1 (stereo partly drawn) | inactive |  | 
2 | CSc1nc(-c2ccccc2)c2c(n1)-c1ccccc1CC2 |  | > 12.3 µM | > 12.3 µM
3 | CCOC1CN(C)C(=Nc2cccc3ccccc23)S1 (stereo not drawn) |  | 4.9 µM | 148 µM
4 | CC(NC(=O)OCc1ccccc1)NC(=O)OC(C)(C)C (stereo not drawn) |  | > 200 µM | 102 µM
5 | CNS(=O)(=O)NNS(=O)(=O)c1ccc2ccccc2c1 |  | > 575 µM | 170 µM
6 | O=C(N/N=C/c1ccc(O)c(S(=O)(=O)O)c1)C(=O)N/N=C/c1ccc(O)c(S(=O)(=O)O)c1 |  | > 100 µM | > 100 µM
7 | CC(=O)NC(CC(C)C)C(=O)NC(Cc1ccccc1)C(=S)N1CCCC1 (stereo not drawn) |  | > 174 µM | > 174 µM
8 | COC(=O)C(C(=O)C(=O)Nc1cccc(O)c1)c1nc2ccc(Cl)cc2[nH]c1=O (stereo not drawn) |  | > 87.1 µM | 85.1 µM
9 | O=C(OCCNC(=O)N1CCOCC1)OCCNC(=O)N1CCOCC1 |  | > 200 µM | > 200 µM
10 | CC(=O)Nc1ccc(C2=N/C(=C\c3ccc(Cl)c(Cl)c3)C(=O)O2)cc1 |  | > 7.24 µM | > 7.24 µM
11 | Fc1ccc(CN2COc3c(ccc4cccnc34)C2)cc1 |  | > 200 µM | 34.7 µM
12 | Cc1ccc(/C(O)=C/c2nc3ccc([N+](=O)[O-])cc3nc2/C=C(\O)c2ccc(C)cc2)cc1 |  | > 100 µM | 97.7 µM
13 | NC(=O)N(O)c1cccc(Br)c1 |  | > 200 µM | 145 µM
14 | COc1ccc2c(c1)c1cc(OC)ccc1n2CCCCOc1ccc(-c2c3ccccc3c(-c3ccc(OCCCCn4c5ccc(OC)cc5c5cc(OC)ccc54)cc3)c3ccccc23)cc1 |  | > 1.55 µM | > 1.55 µM
15 | CC1(CO)CCCC2(C)C1CCC1CC3C=CC12C1C(=O)OC(=O)C31 (stereo not drawn) |  | > 200 µM | 83.2 µM
16 | Cc1c2c(n(CCc3ccccc3)c1C)N(C)N=C(C#N)S2(=O)=O |  | > 200 µM | > 200 µM
17 | C=C(/C=C/C=C(\CO)CCC=C(C)C)[C@H]1CCC2([C@H](CCCO)/C(=C(/C)C=O)CC[C@]2(C)O)[C@H]1O (stereo partly drawn) |  | > 263 µM | 195 µM
18 | O=C1/C(=N\O)c2ccccc2S1(=O)=O | inactive |  | 
19 | Nc1ccn(CC(=O)NCCO)c(=O)n1 |  | > 200 µM | > 200 µM
20 | N#C/C(=C\c1ccccc1)c1ccc(Cl)cc1 |  | > 200 µM | 57.5 µM
21 | CN1C2Cc3cc4c(cc3[C@@]23Cc2ccc5c(c2[C@@H]1O3)OCO5)OCO4 (stereo partly drawn) |  | > 200 µM | 120 µM

Row | Structure (SMILES) | outcome | EC50 | IC50
22 | CCOC(=O)c1c(C)c(=O)cnc2c(C#N)cnn12 |  | > 115 µM | > 115 µM
23 | Cn1c2c(c3ccccc31)CCN(CCCCN1CCc3c(n(C)c4ccccc34)C1=O)C2 |  | > 40.7 µM | > 40.7 µM
24 | COC1OC(COCc2ccc(Cl)cc2)C(OCc2ccc(Cl)cc2)C1N=[N+]=[N-] (stereo not drawn) | inactive |  | 
25 | CCOC(=O)CC(NCc1ccc(N=Cc2nc3ccc(C(F)(F)F)cc3nc2-c2ccccc2)cc1)C(=O)OCC (stereo not drawn) |  | > 200 µM | 162 µM
26 | CC(C)CCC[C@@H](C)C1CCC2[C@@H]3CC=C4C[C@@H](C(=O)NCCN(C)C)CC[C@]4(C)C3CC[C@@]21C (stereo partly drawn) | inactive |  | 
27 | O=C1Nc2ccc(Cl)c(I)c2C1=O |  | > 61.7 µM | 35.5 µM
28 | Cc1cc(C)n(-c2nc3ccccc3c(=O)[nH]2)n1 |  | > 5.13 µM | 1.07 µM
29 | O=C(Nc1cccc([N+](=O)[O-])c1)OCc1ccc2c(c1)OCO2 | inactive |  | 
30 | [Cu+2].[NH-]c1ccccc1C(=O)O.[NH-]c1ccccc1C(=O)O |  | > 200 µM | 17.4 µM
31 | CCCCCCCCCCCCCCCC(=O)OCC1OC(n2cc(F)c(=O)[nH]c2=O)C(NC(=O)N(CCCl)N=O)C(O)C1O (stereo not drawn) |  | > 20.4 µM | 3.47 µM
32 | C#CN1C(=O)c2c(c(-c3ccccc3)c(-c3ccc(Oc4ccc(-c5c(-c6ccccc6)c6c(c(-c7ccccc7)c5-c5ccccc5)C(=O)N(C#C)C6=O)cc4)cc3)c(-c3ccccc3)c2-c2ccccc2)C1=O |  | > 10.2 µM | > 10.2 µM
33 | CC1=C[C@@H]2c3cc(c(O)cc3O)C(=O)[C@H]3C(c4ccc(O)cc4O)CC(C)=C[C@@H]3c3cc(c(O)cc3O)C(=O)C2C(c2ccc(O)cc2O)C1 (stereo partly drawn) | inactive |  | 
34 | O=[n+]1cnn([O-])c2ccccc21 |  | > 200 µM | 3.63 µM
35 | CN(C)CC1CN(C(=O)Nc2ccccc2)C(=N)O1 (stereo not drawn) |  | > 200 µM | > 200 µM
36 | COc1ccc2nc(NC(=O)C(=O)C(C(=O)c3ccccc3-c3ccccc3)C3OC(=O)c4ccccc43)sc2c1 (stereo not drawn) |  | > 45.7 µM | 25.1 µM
37 | O=C(Cc1ccccc1C(=O)O)c1ccccc1 |  | > 200 µM | > 200 µM
38 | CCOC(=O)c1sc2nc(SC)nc(N3CCCCC3)c2c1N |  | > 100 µM | > 100 µM
39 | CC(C)(C)OC(=O)NC(CSSCC(NC(=O)OC(C)(C)C)C(=O)O)C(=O)O (stereo not drawn) |  | > 200 µM | > 200 µM
40 | CC1(C)OC(=O)C(=Cc2cccc(C#N)c2)C(=O)O1 |  | > 708 µM | 41.7 µM
41 | O[C@@H]1CCNC[C@@H]1CNC12CC3CC(CC(C3)C1)C2 |  | > 955 µM | 275 µM
42 | O=C(Nc1ccccc1SC(/C=C/NNC1=NC(c2ccccc2)C(c2ccccc2)=NN1)c1ccccc1)c1ccc(Cl)cc1Cl (stereo not drawn) |  | > 10.7 µM | > 10.7 µM
